From patent US7034005B2, “Use of agent for suppressing infection and proliferation of human immunodeficiency syndrome virus” (The Kitasato Institute, priority 2002, dated 2006)

How the values were obtained:
[1] = tested on: HIV-1BAL strain in M type macrophage (M-MΦ) derived from human monocytes; assay: Proliferation of HIV-1 in M-MΦ: p24 protein in culture supernatant by sandwich ELISA; assay type: cell-based; settings: for suppression of viral generation (p24 in culture supernatant) in M-MΦ: 30 μM, HIV-1BAL, 14 days of culture, compared with DMSO control (FIG. 13); for viral proliferation at 300 μM in M-MΦ: also observed in DMSO control, ascribed to cytotoxicity of DMSO; for concentration dependence of suppressive action on HIV-1BAL in M-MΦ: various concentrations (FIG. 16); for p24 protein in culture supernatant of oligonucleotide pretreated M-MΦ: day 4, 7 and 10 after HIV-1BAL infection, compared with lipofectin control (L) (FIG. 10)
Method: (§1) Macrophages derived from monocytes were prepared by culturing the recovered monocytes in the presence of M-CSF (macrophage colony-stimulating factor) (10^4 U/ml, provided by Morinaga Milk Co.), granulocytes and granulocyte-macrophage colony-stimulating factor, GM-CSF) (500 U/ml, provided by Japan Scheling Plough Co., Osaka, or purchased from R & S Genzyme-TECHNE Inc.) with RPMI1640 medium added with FCS10% (Nissui Seiyaku Co., Tokyo) for 7–8 days.
(§2) The macrophage prepared by differential induction of M-CSF from human monocytes is designated as M type macrophage (M type MΦ or M-MΦ) and the macrophage prepared by differential induction of GM-CSF from human monocytes is designated as GM type macrophage (GM type MΦ or GM-MΦ) Further, alveolar macrophage (alveolar MΦ or A-MΦ) was prepared as follows. Cells in the alveolar lavage liquid obtained from the alveolar lavage of healthy volunteers were recovered, suspended and adhered to plastics, then the non-adhered cells were washed out and the remained adhered cells were designated as the alveolar MΦ.
(§3) Infection of HIV-1 to macrophage was performed as follows. Macrophage directed viral strains, HIV-1JR-FL and HIV-1BAL, were infected for 2 hours in contact with M-MΦ, GM-MΦ and A-MΦ (adjusted to 2.5×10^5/well, Flacon No3043: Becton Dickinson Labware, Inc. U.S.)at low concentration (p24 antigen titer 50 ng/ml, TCID50=3000/ml virus to final concentration at 100 pg/ml), and non-adsorbed virus to the macrophage was washed out, and cultured with adding fresh medium. In case of the medium with M-MΦ, M-CSF was added (10^4 U/ml), and that of the medium with GM-MΦ, GM-CSF was added (500 U/ml).
(§4) Proliferation of virus was examined with the released viral particles in the culture supernatant after the infection by the sandwich ELISA using two types of anti-p24 antibody (Nu24 and 10B5^13). The following JAM62 and JAM65 were used as LTR (HIV long terminal repeat)-gap gene primer. The following JAM63 and JAM 64 were used as the internal primer for the nested PCR. • JAM62: • 5′-[…]-3′ (SEQ ID NO: 1) • JAM65: • 5′-[…]-3′ (SEQ ID NO: 2) • JAM63: • 5′-GTGTOACTCTGGTAACTAGAGATCC-3′ (SEQ ID NO: 3) • JAM64: • 5′-[…]-3′ (SEQ ID NO: 4) (1-4) Assay of Expression of Tyrosine Kinase Hck Protein and Transcription Factor C/EBPβ Protein
(§5) In order to show growth suppression effect of the present invention, among macrolide derivatives, EM, EM201, EM202, EM703, CAM, EM722, EM730, EM732, EM736, EM734, EM735, EM747, EM748, EM743, EM746, EM750 or EM751 was dissolved in DMSO with each 100 mM concentration, and used in dilution with the medium thereafter. A control group was M-MΦ treated only with DMSO used for dissolving macrolide derivatives.
(§6) M-MΦ and GM-M Φ were subjected to contact infection with HIV-1BAL strain for 2 hours, added 30 μM of EM, EM201, EM202, EM703, CAM,EM722, EM730, EM732, EM736, EM734, EM735, EM747, EM748, EM743, EM746, EM750 or EM751, incubated for 14 days and amount of p24 protein in the cultured supernatant was assayed in the time-dependent manner.

[2] = tested on: HIV-1BAL strain in GM type macrophage (GM-MΦ) derived from human monocytes; assay: Proliferation of HIV-1 in GM-MΦ: p24 protein in culture supernatant by sandwich ELISA; assay type: cell-based; settings: 30 μM, HIV-1BAL, all assay points up to 14 days, similar to DMSO control (FIG. 14)
Method: as §1, §2, §3, §4, §5, §6

ERK1/2 = assay: Tyrosine phosphorylation (activation) of ERK1/2 in HIV-1 infected M-MΦ by Western blotting; assay type: cell-based, human; settings: 30 μM, HIV-1BAL infected M-MΦ, compared with DMSO (FIG. 19(B))
Method: (§7) P38MAPK and ERK1/2 activation were determined using P38MAPK antibody, anti-ERK1/2 antibody, anti-tyrosine phosphorylation P38MAPK antibody and anti-tyrosine phosphorylation ERK1/2 antibody (New England Biolabs, Inc. U.S.), and phosphorylation reaction of these molecules was determined by Western blotting.
In any groups, total amount of ERK1/2 (total sum of phosphorylated and non-phosphorylated p38MARK) was equal [refer to FIG. 19(B)].

[3] = tested on: HIV-1BAL strain infected M-MΦ; assay: Cytopathy (MGC formation) of HIV-1 infected M-MΦ; assay type: cell-based, human; settings: 30 μM, HIV-1BAL (FIG. 17)
Method: Formation of cell cluster and cell fusion was observed from the 2nd day of the incubation only in virus producing M-MΦ and formation of multinucleatic giant cells were recognized from the culture day 4–7 [refer to FIG. 2(A)]. On the other hand, in GM-MΦ without generation of virus, nomorphological changes were observed [refer to FIG. 2(B)].
M-MΦ was subjected to contact infection with HIV-1BAL strain for 2 hours, added 30 μM of EM, EM201, EM202, EM703 or CAM, incubated and observed the cell morphology.

p38MAPK = assay: Tyrosine phosphorylation (activation) of p38MAPK in HIV-1 infected M-MΦ by Western blotting; assay type: cell-based, human; settings: 30 μM, day 2 of culture, HIV-1BAL infected M-MΦ, compared with DMSO (FIG. 19(A))
Method: as §7
Thirty μM of EM, EM201, EM202, EM703 or CAM were added to M-MΦ infected with HIV-1BAL strain, tyrosine phosphorylation of p38MAPK was detected on day 2 of the culture by Western blotting. […] In any groups, total amount of p38MAPK (total sum of phosphorylated and non-phosphorylated p38MARK) was equal.

[4] = tested on: tyrosine kinase Hck protein; assay: Expression of tyrosine kinase Hck protein in M-MΦ by Western blotting; assay type: cell-based, human; settings: for expression of tyrosine kinase Hck protein in HIV-1 infected M-MΦ: 30 μM, compared with DMSO control (FIG. 18); for expression of tyrosine kinase Hck protein in HIV-1 infected M-MΦ / expression of tyrosine kinase Hck protein in oligonucleotide pretreated M-MΦ after infection: day 2 after HIV-1BAL infection; for expression of tyrosine kinase Hck protein in oligonucleotide treated M-MΦ before infection: probe 2 μM for 24 hours, further 24 hours incubation, compared with lipofectin control (L) (FIG. 9)
Excerpt: Expression of tyrosine kinase Hck protein and transcription factor C/EBPβ protein in macrophage was examined after solubilizing the macrophage in SDS-PAGE sample buffer, performing 10% SDS-polyacrylamide electrophoresis, transferring the protein on the gel to immobilon P membrane (Millipore Inc. U.S.) and checking antibodies against these proteins by Western blotting. Antibody to tyrosine kinase Hck protein (N-30) and antibody to C/EBPβ (C-19) were purchased from Santacluse Inc. (U.S.). Western blotting was detected by Amersham ELC Regent (Amersham International plc, Buckinghamshire, UK). Strength of bands was expressed by PSL (photostimulating luminescence) value (A/mm^2).
These probes were dissolved in the serum free RPMI1640 medium, in which lipofectin (Life Technology Inc., U.S.) was dissolved at 5 μM concentration, at room temperature for 30 minutes, added with RPMI1640 medium, which contains 10% FCS, to the macrophage (final concentration 2 μM) and incubated at 37° C. for 24 hours. Thereafter, cells were washed with the medium, added the RPMI1640 medium containing 10% FCS without oligonucleotide, further cultured for 24 hours, and then infected with HIV-1.
Consequently, M-MΦ was subjected to contact infection with HIV-1BAL strain for 2 hours, added 30 μM of EM, EM201, EM202, EM703 or CAM, incubated and expression of tyrosine kinase Hck protein was observed on day 2 after the infection by Western blotting.

| Compound | suppression of viral generation (p24 in culture supernatant) in M-MΦ [1] | viral proliferation at 300 μM in M-MΦ [1] | concentration dependence of suppressive action on HIV-1BAL in M-MΦ [1] | viral generation in GM-MΦ [2] | tyrosine phosphorylation of ERK1/2 (ERK1/2) | cytopathic effect (MGC formation) in HIV-1 infected M-MΦ [3] | tyrosine phosphorylation of p38MAPK (p38MAPK) | expression of tyrosine kinase Hck protein in HIV-1 infected M-MΦ [4] | p24 protein in culture supernatant of oligonucleotide pretreated M-MΦ [1] | expression of tyrosine kinase Hck protein in oligonucleotide pretreated M-MΦ after infection [4] | expression of tyrosine kinase Hck protein in oligonucleotide treated M-MΦ before infection [4] | proliferation of virus in M-MΦ at 3 μM ([1]; 3 μM) |
| --- | --- | --- | --- | --- | --- | --- | --- | --- | --- | --- | --- | --- |
| CCC1OC(=O)C(C)C(O[C@H]2C[C@@](C)(OC)[C@@H](O)[C@H](C)O2)C(C)C(O[C@@H]2O[C@H](C)C[C@H](N(C)C)[C@H]2O)C(C)(O)CC(C)C(=O)C(C)C(O)C1(C)O (stereo partly shown) [EM, reference compound] | suppression of viral generation was recognized, though not so strong | viral proliferation at 300 μM was observed | exhibited suppression of viral production depending upon drug concentration | almost no viral generation was recognized | weakly recognized as same in the control group | formation of MGC was slightly recognized | recognized to decrease, though not so strong | the suppression of tyrosine kinase Hck protein was observed, though not so strong | – | – | – | – |
| Hck-NS: Phosphorothioate-modified non-sense oligonucleotide probe, 5′-CCATATTTCCCGCTCOCGTG-3′ (SEQ ID NO: 7) (CCATATTTCCCGCTCGCGTG; all phosphorothioate, sugars by position and methylation of C not given here) | – | – | – | – | – | – | – | – | time-dependent increase in p24 protein was recognized | no suppression of expression of tyrosine kinase Hck protein was recognized | suppression of expression of tyrosine kinase Hck protein was recognized | – |
| Hck-S: Phosphorothioate-modified sense oligonucleotide probe of Hck, 5′-GCCAGOATOGGGTCGATCAA-3′ (SEQ ID NO: 6) | – | – | – | – | – | – | – | – | time-dependent increase in p24 protein was recognized | no suppression of expression of tyrosine kinase Hck protein was recognized | suppression of expression of tyrosine kinase Hck protein was recognized | – |
| CCC(O)C(C)(O)C1OC(=O)C(C)C(OC2CC(C)(OC)C(O)C(C)O2)C(C)C(OC2OC(C)CC(NC)C2O)C2(C)CC(C)=C(O2)C1C (stereo not shown) [EM703, de(3′-N-methyl)-8,9-anhydro-pseudoerythromycin A 6,9-hemiketal] | almost no p24 was detected | viral proliferation at 300 μM was observed | concentration dependent manner | almost no viral generation was recognized | promotion of tyrosine phosphorylation of ERK1/2 was recognized | no cytopathic effect such as MCG formation was observed | significantly decreased | strongly suppressed | – | – | – | inhibited almost completely the proliferation of virus |
| CC[C@H]1OC(=O)[C@H](C)[C@@H](O[C@H]2C[C@@](C)(OC)[C@@H](O)[C@H](C)O2)[C@H](C)[C@@H](O[C@@H]2O[C@H](C)C[C@H](N(C)C)[C@H]2O)[C@@]2(C)C[C@@H](C)[C@@]3(O[C@@]1(C)[C@H](O)[C@H]3C)O2 [EM202, 6,9,12-Anhydroerythromycin A] | suppression of viral generation was recognized, though not so strong | viral proliferation at 300 μM was observed | exhibited suppression of viral production depending upon drug concentration | almost no viral generation was recognized | weakly recognized as same in the control group | formation of MGC was slightly recognized | recognized to decrease, though not so strong | the suppression of tyrosine kinase Hck protein was observed, though not so strong | – | – | – | – |
